According to PubChem BioAssay AID248 (DTP/NCI, 2004):
Several values for one entry are separate records, joined by “and”; a condition that tells them apart may be missing. Equal entries are not always repeated. Toxic doses and inconclusive results are not listed. Rule as the data show it: active = T/C of 150% or more; inactive = T/C below 125%.

Test system: L1210 leukemia ip in BDF1 mice, survival T/C
Test: NCI In Vivo Anticancer Drug Screen. Data for tumor model L1210 Leukemia (intraperitoneal) in B6D2F1 (BDF1) mice
Conditions: endpoint: mean survival time, higher = longer survival
How it was run: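 Value reflects the ratio of survival in compound-treated mice to survival in vehicle-treated controls, with both groups carrying the same transplanted tumor.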

[1] = dose: 100.0 mg/kg/injection, schedule: Q04DX003 (ip), vehicle: saline with Tween-80
[2] = dose: 100.0 mg/kg/injection, schedule: Q01DX009 (ip), vehicle: saline with Tween-80
[3] = dose: 100.0 mg/kg/injection, schedule: Q01DX001 (ip), vehicle: Klucel (hydroxypropylcellulose) (HPC)
[4] = dose: 100.0 mg/kg/injection, schedule: Q01DX009 (ip), vehicle: Klucel (hydroxypropylcellulose) (HPC)
[5] = dose: 200.0 mg/kg/injection, schedule: Q01DX001 (ip), vehicle: Klucel (hydroxypropylcellulose) (HPC)
[6] = dose: 200.0 mg/kg/injection, schedule: Q04DX003 (ip), vehicle: saline with Tween-80
[7] = dose: 400.0 mg/kg/injection, schedule: Q04DX003 (ip), vehicle: saline with Tween-80

Measured: T/C

C=CCN(CC=C)C(=O)CCN1CC1
inactive: dose: 1.25 mg/kg/injection, schedule: Q01DX Z (ip), vehicle: saline 96 % of control | dose: 2.5 mg/kg/injection, schedule: Q01DX Z (ip), vehicle: saline 96 % of control | dose: 5.0 mg/kg/injection, schedule: Q01DX Z (ip), vehicle: saline 100 % of control | dose: 10.0 mg/kg/injection, schedule: Q01DX Z (ip), vehicle: saline 98 % of control and 111 % of control | dose: 10.0 mg/kg/injection, schedule: Q01DX Z (oral), vehicle: saline 108 % of control | dose: 20.0 mg/kg/injection, schedule: Q01DX001 (ip), vehicle: saline 103 % of control | dose: 20.0 mg/kg/injection, schedule: Q01DX Z (ip), vehicle: saline 96 % of control | dose: 20.0 mg/kg/injection, schedule: Q01DX Z (oral), vehicle: saline 117 % of control | dose: 40.0 mg/kg/injection, schedule: Q01DX001 (ip), vehicle: saline 115 % of control | dose: 40.0 mg/kg/injection, schedule: Q01DX Z (oral), vehicle: saline 86 % of control

S=C(Nc1ccc(Cl)c(Cl)c1)Sc1ccccc1
inactive: dose: 50.0 mg/kg/injection, schedule: Q04DX003 (ip), vehicle: saline with Tween-80 95 % of control | [1] 91 % of control

O=c1c2c(c(=O)c(=O)c1=O)Nc1ccccc1N2
inactive: dose: 100.0 mg/kg/injection, schedule: Q01DX001 (ip), vehicle: saline 98 % of control | dose: 200.0 mg/kg/injection, schedule: Q01DX001 (ip), vehicle: saline 104 % of control | dose: 400.0 mg/kg/injection, schedule: Q01DX001 (ip), vehicle: saline 98 % of control

CC(C)(C)N1CCCC1
inactive: dose: 25.0 mg/kg/injection, schedule: Q01DX009 (ip), vehicle: saline with Tween-80 96 % of control | dose: 50.0 mg/kg/injection, schedule: Q01DX009 (ip), vehicle: saline with Tween-80 91 % of control | [2] 88 % of control

C1=Cc2c3c(c4c(c2C1)C=CC4)CC=C3
inactive: dose: 25.0 mg/kg/injection, schedule: Q01DX001 (ip), vehicle: Klucel (hydroxypropylcellulose) (HPC) 93 % of control | dose: 50.0 mg/kg/injection, schedule: Q01DX001 (ip), vehicle: Klucel (hydroxypropylcellulose) (HPC) 97 % of control | [3] 101 % of control | [4] 95 % of control | [5] 92 % of control | dose: 200.0 mg/kg/injection, schedule: Q01DX009 (ip), vehicle: Klucel (hydroxypropylcellulose) (HPC) 88 % of control | dose: 400.0 mg/kg/injection, schedule: Q01DX001 (ip), vehicle: Klucel (hydroxypropylcellulose) (HPC) 93 % of control | dose: 400.0 mg/kg/injection, schedule: Q01DX009 (ip), vehicle: Klucel (hydroxypropylcellulose) (HPC) 95 % of control

CC(=O)CCNC1(c2ccccc2)CCCCC1
inactive: [3] 95 % of control | [5] 95 % of control

Nc1nc2ncsc2c(=O)[nH]1
inactive: dose: 100.0 mg/kg/injection, schedule: Q01DX001 (ip), vehicle: saline with Tween-80 89 % of control | dose: 200.0 mg/kg/injection, schedule: Q01DX001 (ip), vehicle: saline with Tween-80 89 % of control | dose: 400.0 mg/kg/injection, schedule: Q01DX001 (ip), vehicle: saline with Tween-80 102 % of control

CCN(CC)CCOC(=O)C1CC1(c1ccccc1)c1ccccc1 (stereo not given)
inactive: dose: 25.0 mg/kg/injection, schedule: Q01DX009 (ip), vehicle: Klucel (hydroxypropylcellulose) (HPC) 98 % of control | dose: 50.0 mg/kg/injection, schedule: Q01DX009 (ip), vehicle: Klucel (hydroxypropylcellulose) (HPC) 87 % of control | [4] 95 % of control and 98 % of control

[N-]=[N+]=NCCCCCCCCCCN=[N+]=[N-]
inactive: dose: 75.0 mg/kg/injection, schedule: Q04DX003 (ip), vehicle: saline 102 % of control | dose: 150.0 mg/kg/injection, schedule: Q04DX003 (ip), vehicle: saline 101 % of control | dose: 300.0 mg/kg/injection, schedule: Q04DX003 (ip), vehicle: saline 91 % of control

COC(C(=O)O)c1ccc(Cl)cc1 (stereo not given)
inactive: dose: 100.0 mg/kg/injection, schedule: Q04DX002 (ip), vehicle: saline with Tween-80 98 % of control | dose: 200.0 mg/kg/injection, schedule: Q04DX002 (ip), vehicle: saline with Tween-80 91 % of control | dose: 400.0 mg/kg/injection, schedule: Q04DX002 (ip), vehicle: saline with Tween-80 91 % of control

NC(=S)N/N=C1/c2ccccc2-c2cc(Br)ccc21
inactive: dose: 50.0 mg/kg/injection, schedule: Q04DX003 (ip), vehicle: Klucel (hydroxypropylcellulose) (HPC) 106 % of control | dose: 100.0 mg/kg/injection, schedule: Q04DX003 (ip), vehicle: Klucel (hydroxypropylcellulose) (HPC) 97 % of control | dose: 200.0 mg/kg/injection, schedule: Q04DX003 (ip), vehicle: Klucel (hydroxypropylcellulose) (HPC) 100 % of control

S=C(S)N1CCC(CCCC2CCN(C(=S)S)CC2)CC1
inactive: [2] 88 % of control | [1] 100 % of control | dose: 200.0 mg/kg/injection, schedule: Q01DX009 (ip), vehicle: saline with Tween-80 88 % of control | [6] 89 % of control | [7] 105 % of control

O=C(O)c1c(Br)c(Br)c(Br)c(Br)c1-c1c2ccc(=O)c(O)c-2oc2c(O)c(O)ccc12
inactive: dose: 12.5 mg/kg/injection, schedule: Q04DX003 (ip), vehicle: saline 108 % of control | dose: 25.0 mg/kg/injection, schedule: Q04DX003 (ip), vehicle: saline 103 % of control | dose: 50.0 mg/kg/injection, schedule: Q04DX003 (ip), vehicle: saline 105 % of control | dose: 100.0 mg/kg/injection, schedule: Q04DX003 (ip), vehicle: saline 102 % of control

O=Nc1ccc(NO)cc1
inactive: [1] 98 % of control and 100 % of control | [6] 98 % of control and 100 % of control | [7] 108 % of control and 91 % of control

CCCCCCCCCCCCC(=O)N1CCCC1
inactive: dose: 100.0 mg/kg/injection, schedule: Q04DX002 (ip), vehicle: saline 104 % of control | dose: 200.0 mg/kg/injection, schedule: Q04DX002 (ip), vehicle: saline 104 % of control | dose: 400.0 mg/kg/injection, schedule: Q04DX002 (ip), vehicle: saline 96 % of control

NNC(=O)CNc1ccc(Br)cc1
inactive: dose: 100.0 mg/kg/injection, schedule: Q04DX002 (ip), vehicle: Klucel (hydroxypropylcellulose) (HPC) 112 % of control | dose: 200.0 mg/kg/injection, schedule: Q04DX002 (ip), vehicle: Klucel (hydroxypropylcellulose) (HPC) 106 % of control
